Measurements from patent publication US20250223270A1, “Sulfonamide Compounds and Use Thereof” (Taiho Pharmaceutical Co., Ltd., priority 2017, published 2025).
≈ marks a conversion by molar mass, not a printed value. Entries after “also recorded” stand apart in the source; their conditions may differ.

Columns and labels:
Type in all cases: physicochemical
[1] = Hygroscopicity, moisture adsorption/desorption test; settings: for hygroscopicity: moisture adsorption/desorption test, FIG. 8; for mass change in moisture adsorption/desorption test: relative humidity of 95%, 25° C.
Protocol: The moisture adsorption/desorption test was carried out according to the following conditions.
Approximately 10 to 15 mg of the sample was filled in a dedicated quartz holder, and the weight of each sample at each humidity was continuously measured and recorded under the following conditions.

[2] = Charging property (adhesion to spatula or glass bottle); settings: adhesion to a spatula or a glass bottle
[3] = Stability test, 40° C./75% RH, analogous substances by HPLC
Protocol: (§1) The amount of analogous substances in the sample solution was measured by HPLC analysis. The handling of the device including data processing was in accordance with the manual provided with the device. (i.e., Prominence-i). About 2 mg of the exemplary sample of the present invention was dissolve in 4 mL of mobile phase A/mobile phase B mixture (17:3), and the resulting mixture was used as sample solution. • Column: CAPCELL PAK ADME manufactured by Shiseido (4.6×150 mm, 3 μm) • UV detection: 220 nm • Column temperature: 40° C. • Column flow rate: 1.0 mL/min • Mobile phase: A; 5 mM phosphate buffer, pH 6.2/Acetonitrile (4:1) • B: acetonitrile • Injection volume: 5 μL • Sample cooler temperature: 5° C. • Collection time: 40 minutes
The solid stability of the exemplary sample of the present invention and the free form obtained above was tested after the sample was stored at 40° C./75% RH (closed and open condition) for 2 weeks or 4 weeks. Open condition means that the lid of the glass bottle was removed and covered with Kimwipe. • Measurement points: 2 weeks and 4 weeks • Storage amount: about 50 to 60 mg • Storage container: brown glass bottle

[4] = Optical purity stability by chiral HPLC; settings: 40° C./75% RH (closed and open condition), 24 hours
Protocol: The optical purity was also measured by the following HPLC condition • Detector: UV at 240 nm • Column: […] IE (4.6×250 mm, 5 μm)/Daicel corp. • Column temperature: 40° C. • Mobile phase: n-hexane/ethanol/ethanolamine/acetic acid (65:35:0.5:0.2) • Flow rate: 1.0 mL/min • Injection: 5 μL • Sample temperature: 5° C. • Time span of measurement: 40 min
Compound—RR, RS,SS: 0.05%
The optical purity was measured also with added 0.2% optical isomer.
The solid stability of the exemplary sample of the present invention and the free form obtained
above was tested before and after the sample was stored at 40° C./75% RH (closed and open condition) for 24 hours.

[5] = Solid stability test, 40° C./75% RH, 70° C., 80° C., by HPLC
Protocol: The solid stability of the exemplary sample of the present invention and the free form obtained above was tested after the sample was stored at 40° C./75% RH (open condition), 70° C. (closed) and 80° C. (closed) after 2 weeks or 4 weeks. Open condition means that the lid of the glass bottle was removed and covered with Kimwipe, 70° C. and 80° C. (closed). • Measurement points: 2 weeks and 4 weeks • Storage amount: about 30 mg • Storage container: brown glass bottle
as §1, with “6.5/Acetonitrile” for “6.2/Acetonitrile”

[6] = Solubility test, 37° C., 2 hours; settings: for Solubility: 2 hours
Protocol: About 15 mg of the exemplary sample of the present invention was added to 1 mL of each solvent and was swelled at 37° C. for 2 hours under light resistant condition. After centrifugation, each supernatant was filtered, and 0.7 mL of a mixture of water and acetonitrile (1:1) was added to 0.1 ml of the filtrate.
Following of mobile phase: Control the gradient by mixing the mobile phase A and B as directed in the following table below • Flow rate: 1.0 mL per minutes • Time span of measurement: For 12 minutes after injection

| Compound | mass change in moisture adsorption/desorption test [1] | charging property [2] | Chemical Purity (%) ([3]; 40° C./75% RH (Closed), 2 wks) | Total amount of analogous substances (%) ([3]; 40° C./75% RH (Closed), 2 wks) | Chemical Purity (%) ([3]; 40° C./75% RH (Closed), 4 wks) | Total amount of analogous substances (%) ([3]; 40° C./75% RH (Closed), 4 wks) | Chemical Purity (%) ([3]; 40° C./75% RH (Open), 2 wks) | Total amount of analogous substances (%) ([3]; 40° C./75% RH (Open), 2 wks) | Chemical Purity (%) ([3]; 40° C./75% RH (Open), 4 wks) | Total amount of analogous substances (%) ([3]; 40° C./75% RH (Open), 4 wks) | Chemical Purity (%) ([3]; Initial) | Total amount of analogous substances (%) ([3]; Initial) | change in the optical purity [4] | Chemical Purity (%) ([5]; 40° C. 75% RH (Open), 4wks) | Total amount of analogous substances (%) ([5]; 40° C. 75% RH (Open), 4wks) | Chemical Purity (%) ([5]; 70° C. (Closed), 2 wks) | Total amount of analogous substances (%) ([5]; 70° C. (Closed), 2 wks) | Chemical Purity (%) ([5]; 70° C. (Closed), 4 wks) | Total amount of analogous substances (%) ([5]; 70° C. (Closed), 4 wks) | Chemical Purity (%) ([5]; 80° C. (Closed), 2 wks) | also measured |
| --- | --- | --- | --- | --- | --- | --- | --- | --- | --- | --- | --- | --- | --- | --- | --- | --- | --- | --- | --- | --- | --- |
| Cc1ccc(F)c([C@@H](C)[C@H](NS(=O)(=O)c2ccc(Cl)cc2C(N)=O)c2n[nH]c(=O)o2)c1C [Comparative Example, 5-chloro-2-(N-((1S,2R)-2-(6-fluoro-2,3-dimethylphenyl)-1-(5-oxo-4,5-dihydro-1,3,4-oxadiazol-2-yl)propyl)sulfamoyl)benzamide] | about 3.8% | high charging property | 98.42 | 1.58 | 98.16 | 1.84 | 98.35 | 1.65 | 98.14 | 1.86 | 98.49 | 1.51 | No significant change | 97.97 | 2.03 | 97.31 | 2.69 | 96.39 | 3.61 | 95.90 | hygroscopicity ([1]; listed as free form): had hygroscopicity; charging property ([2]; listed as free form): high charging property; Total amount of analogous substances (%) ([5]; 80° C. (Closed), 2 wks): 4.10%; Chemical Purity (%) ([5]; 80° C. (Closed), 4 wks): 92.92%; Total amount of analogous substances (%) ([5]; 80° C. (Closed), 4 wks): 7.08%; Chemical Purity (%) ([5]; Initial): 98.33%; Total amount of analogous substances (%) ([5]; Initial): 1.67% |
| Cc1ccc(F)c([C@@H](C)[C@H](NS(=O)(=O)c2ccc(Cl)cc2C(N)=O)c2n[nH]c(=O)o2)c1C [Exemplary Sample, 5-chloro-2-(N-((1S,2R)-2-(6-fluoro-2,3-dimethylphenyl)-1-(5-oxo-4,5-dihydro-1,3,4-oxadiazol-2-yl)propyl)sulfamoyl)benzamide] | about 0.1% | weak charging property; also recorded: low charging property | 98.67 | 1.33 | 98.62 | 1.38 | 98.67 | 1.33 | 98.60 | 1.40 | 98.67 | 1.33 | No significant change | 99.69 | 0.31 | 99.67 | 0.33 | 99.68 | 0.32 | 99.66 | hygroscopicity [1]: almost no hygroscopicity; Solubility ([6]; 0.5% HPMC, 37° C.): 0.13 mg/mL (≈ 269 µM); Solubility ([6]; Acetate buffer (50 mM, pH 4.0), 37° C.): 0.26 mg/mL (≈ 538 µM); Solubility ([6]; Second fluid for dissolution test, pH 6.8, 37° C.): 0.61 mg/mL (≈ 1260 µM); change on XRD pattern ([6]; after 2 hr solubility study): No significant change; Total amount of analogous substances (%) ([5]; 80° C. (Closed), 2 wks): 0.34%; Chemical Purity (%) ([5]; 80° C. (Closed), 4 wks): 99.66%; Total amount of analogous substances (%) ([5]; 80° C. (Closed), 4 wks): 0.34%; Chemical Purity (%) ([5]; Initial): 99.69%; Total amount of analogous substances (%) ([5]; Initial): 0.31% |
